We go through one compound from patent US6372243B2, “Low-oxygen fluorocarbon as an agent for ophthalmology” (Pharm pur GmbH, priority 1998, dated 2002).

This data set concerns retinal blood vessels. Description: fluorocarbon inserted into the vitreous area of the rabbit eye, examination for retinal vessel damage. It counts as in vivo. The conditions noted are these: 1.2 ml into one eye each of two rabbits after gas compression of the vitreous body; durations of between two days and six weeks. The procedure:
In fluorescence angiography, a narrowing of the vessels appears from the second post-operative day. As time passes, vessel occlusions, a rarefaction of the capillary bed and the development of microaneurisms appear.
This oxygen-lacking perfluorodecalin was then sterile filtered and injected into one eye each of two rabbits, whereby, prior to the injection, the vitreous body was gas compressed in a known manner. After the gas compression, the gas was […] exchanged for 1.2 ml of the deoxygenated perfluorodecalin, so that about two thirds of the vitreous body area, including the area of the retinal blood vessels, was filled with perfluorodecalin.
After durations of between two days and six weeks, the eyes were examined for vessel damage.

Turning to `FC1(F)C(F)(F)C(F)(F)C2(F)C(F)(F)C(F)(F)C(F)(F)C(F)(F)C2(F)C1(F)F` (stereo not shown) [oxygen-lacking perfluorodecalin, perfluorodecalin], the “eyes examined for vessel damage, in comparison to the untreated eye” value was “completely normal condition”.
